Results published in patent publication US9707155B2, “Delamination resistant pharmaceutical glass containers containing active pharmaceutical ingredients” (Corning Incorporated, priority 2013, dated 2017).

Tests used:
blood glucose = assay: Action profile in dogs (blood glucose as percentage of initial level); format: in vivo; conditions: blood glucose at 1 h, 2 h, 3 h, 5 h, 7h
Protocol: An action profile of Lyxumia and/or Lyxumia and Lantus (in combination) after subjection to the storage conditions described in Example 6 is carried out by comparing insulin glargine in dogs with human insulin-Arg^B31-Arg^B32-OH and basal H insulin as an NPH (neutral protamine Hagedorn) composition containing about 10 μg of Zn^2+.
Blood glucose is measured as a percentage of the initial level at the following time points: 1 h, 2 h, 3 h, 5 h, 7h.

[1] = Stability after storage conditions; format: physicochemical; conditions: under the chosen conditions
[2] = in vivo; cited from earlier work
[3] = system: patients with acute coronary syndromes; conditions: compared to unfractionated heparin and eptifibatide; cited from earlier work
[4] = cited from earlier work
tumor cell lines = conditions: cited from earlier work
tumor xenografts (WM9) = assay: Melanoma xenografts (WM9) in nude mice; format: in vivo; conditions: 5 days treatment, versus untreated mice
Protocol: Tumor cells (5×10^6) are injected into the bilateral flanks of female […] nude mice (6-8 weeks of age). The tumors are measured with calipers using the formula: V=[…], where V is the volume, L is the largest diameter, and I is the perpendicular diameter of the tumor. When the volume of the tumor nodules reaches 100-150 mm^3, mice are randomly assigned to control or treatment groups (6-9 mice/group).
Therapeutic treatment with a combination of SAR2405550/BSI-201 and the alkylating agent TMZ was initiated when tumor xenografts (WM9) in nude mice reach 100 mm^3 in volume and treatment was continued for 5 days. In specific instances, the tumor volume is measured for assessment of therapeutic effect.

BAF-h130 cells = assay: IL-6 signaling mediated by sIL-6R, BAF-h130 proliferation ([3H]-thymidine uptake); format: cell-based, murine; conditions: IL-6 100 ng/mL, sIL-6R 500 ng/mL, 4 days
Protocol: BAF-h130 cell is a human gp130-transfected murine pro-B cell, BAF-B03. BAF-h130 cells (1×10^4) are cultured with IL-6 (100 ng/mL) (Genzyme-techne, Minneapolis, Minn., USA), sIL-6R (500 ng/mL) or sarilumab (0.01-100 Ag/mL) at 37° C. under 5% CO2 for 4 days in 96-well flat-bottomed plates. The culture is performed in quadruplicate. [^3H]-thymidine (10 μL/well, 3.7 MBq/mL) (Amercham Pharmacia Biotech, Piscataway, N.J., USA) is added to each well 5 h before the completion of culture. After incubation, the amount of [^3H]-thymidine uptake into cells is determined with a scintillation counter (1450 MicroBeta) (Wallace Oy, Turku, Finland).
BaF-h130 cells could grow by the co-addition of IL-6 (100 ng/ml) and sIL-6R (500 ng/mL), but not by IL-6 or sIL-6R alone. […] Sarilumab suppresses the IL-6/sIL-6R complex-induced proliferation of human gp130-transfected cell, BAF-h130.

human IL-6R = target: T1, human IL-6R (Homo sapiens, UniProt P08887); assay: Binding to COS-7 cells transfected with human IL-6R (fluorescent intensity); format: cell-based
T1 construct: expressed in transfected cells; host or cells: COS-7 cells
T1 sequence (P08887 20-468): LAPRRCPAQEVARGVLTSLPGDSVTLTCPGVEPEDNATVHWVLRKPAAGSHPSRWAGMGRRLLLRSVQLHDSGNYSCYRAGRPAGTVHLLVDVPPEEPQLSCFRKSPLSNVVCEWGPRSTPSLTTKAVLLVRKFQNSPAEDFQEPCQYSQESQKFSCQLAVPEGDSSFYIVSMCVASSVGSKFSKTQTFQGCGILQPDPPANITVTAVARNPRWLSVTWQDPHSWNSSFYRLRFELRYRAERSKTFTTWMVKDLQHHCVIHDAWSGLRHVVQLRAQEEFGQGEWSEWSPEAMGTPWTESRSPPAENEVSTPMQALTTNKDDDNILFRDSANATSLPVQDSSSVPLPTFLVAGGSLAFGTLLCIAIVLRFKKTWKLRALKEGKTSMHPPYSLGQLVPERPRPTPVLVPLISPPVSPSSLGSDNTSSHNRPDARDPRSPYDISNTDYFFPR
Protocol: COS-7 cells (1×10^6) are inoculated into 10 mL of the medium on a 10 cm dish. Next day, the old medium is replaced with 20 mL of new medium per dish. After 3.42 mL of Opti-MEM (Invitrogen, Carlsbad, Calif., USA) is placed in a polystyrene tube, 180 μL of Trans-IT LTI reagent (Takara Bio, Shiga, Japan) is added and mixed well. The mixture (3.6 mL) is left at room temperature for 15 min. After 60 μg of human IL-6R expression vector hIL-6R/pcDNA3.1 (+) or control (empty) vector pcDNA3.1 (+) (Invitrogen) is added to 5.4 mL of Opti-MEM and mixed well with the above mixture, the resulting solution (9 mL) is allowed to stand at room temperature for 15 min, divided in 3 mL aliquots on three dishes, and incubated at 37 8 C under 5% CO2 for 3 days.

[5] = system: IL-6-dependent myeloma cell line, KPMM2; assay: IL-6 signaling mediated by mIL-6R, KPMM2 growth; format: cell-based
Protocol: IL-6-dependent myeloma cell line, KPMM2 (1×10^5 cells/mL) are cultured with IL-6 (0-100 ng/mL) and sarilumab (0-100 μg/mL) in a CO2 incubator for 4 days in a 96-well plate. After incubation, the amount of [^3H]-thymidine uptake into cells is determined with a scintillation counter.

[6] = system: patients with active rheumatoid arthritis; conditions: week 12, subcutaneous, relative to placebo, patients receiving methotrexate; cited from earlier work

## 21^A-Gly-30^Ba-L-Arg-30^Bb-L-Arg-human insulin [Gly^A21-Human Insulin-Arg^B31-Arg^B32-OH]
Blood glucose
  basal action profile: same advantageous basal profile as human insulin-Arg^B31-Arg^B32-OH
[1]
  stability: stable for a long period of time

## COC(=O)[C@H](Cc1cccc(C(=N)N)c1)[C@@H](C)NC(=O)c1ccc(-c2cc[n+]([O-])cc2)cc1 (mixture of isomers) [Otamixaban, Methyl(2R,3R)-2-{3-[amino(imino)methyl]benzyl}-3-{[4-(1-oxidopyridin-4-yl)benzoyl]amino}butanoate]
[2]
  half-life: ~30 min
[3]
  combined end point of death or myocardial infarction: significant reduction

## NC(=O)c1ccc(I)c([N+](=O)[O-])c1 [Iniparib, 4-iodo-3-nitrobenzamide]
[4]
  solubility: soluble
Tumor cell lines
  cell cycle arrest: inducing cell cycle arrest in the G2/M phase
  potentiation of DNA damaging modalities: potentiating the cell cycle effects of DNA damaging modalities
  γ-H2AX induction: inducing γ-H2AX

## Cn1nnc2c(C(N)=O)ncn2c1=O [TMZ]
Tumor xenografts (WM9)
  tumor growth: No significant differences in tumor growth

B1: Sarilumab: fully human monoclonal antibody that selectively targets the interleukin-6 receptor (IL-6R) (antibody, chains of the INN, looked up, V domains shown)
VH: EVQLVESGGGLVQPGRSLRLSCAASRFTFDDYAMHWVRQAPGKGLEWVSGISWNSGRIGYADSVKGRFTISRDNAENSLFLQMNGLRAEDTALYYCAKGRDSFDIWGQGTMVTVSS
VL: DIQMTQSPSSVSASVGDRVTITCRASQGISSWLAWYQQKPGKAPKLLIYGASSLESGVPSRFSGSGSGTDFTLTISSLQPEDFASYYCQQANSFPYTFGQGTKLEIK
BAF-h130 cells
  proliferation of BAF-h130 cells induced by IL-6/sIL-6R complex: suppresses the proliferation of BAF-h130 cells induced by the complex of IL-6 and sIL-6R in a concentration-dependent manner
Human IL-6R; IL-6R transfectant
  fluorescent intensity in COS-7 cells expressing human IL-6R: increases the fluorescent intensity
Human IL-6R; control vector pcDNA3.1 (+) transfectant
  fluorescent intensity in COS-7 mock cells: not in COS-7 mock cells
[5]
  growth of KPMM2: suppress the growth
[6]
  ACR20: significant and clinically relevant improvements
